In patent US9670227B2, “Thienopyrimidine derivatives, a process for their preparation and pharmaceutical compositions containing them” (LES LABORATOIRES SERVIER, priority 2013, dated 2017):
Where two headings read alike, the source gives them in different places.

What was measured:
Mcl-1 protein = Mcl-1 protein (UniProtKB primary accession number: Q07820) (Homo sapiens, UniProt Q07820); assay: Inhibition of Mcl-1 by fluorescence polarisation, Method 1; format: binding; details: fluorescence polarisation; Method 1, or Method 2; read-out: IC50 (M) Mcl-1 FP
Outline: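 An 11-point DMSO dilution of compound is mixed with buffer (10 mM HEPES, 150 mM NaCl, 0.05% Tween 20, pH 7.4) carrying 1 nM fluorescein-labelled ligand and 5 nM Mcl-1, final concentrations. Displacement is monitored by fluorescence polarisation.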

[1] = tested on: H929 multiple myeloma tumour line; assay: In vitro cytotoxicity, Microculture Tetrazolium Assay; format: cell-based; details: H929 cells, 48 hours exposure, MTT, read-out: IC50 (μM) MTT H929
Protocol: The cytotoxicity studies were carried out on the H929 multiple myeloma tumour line.
The cells are distributed onto microplates and exposed to the test compounds for 48 hours.

Sequence of Mcl-1 protein (Q07820 whole entry): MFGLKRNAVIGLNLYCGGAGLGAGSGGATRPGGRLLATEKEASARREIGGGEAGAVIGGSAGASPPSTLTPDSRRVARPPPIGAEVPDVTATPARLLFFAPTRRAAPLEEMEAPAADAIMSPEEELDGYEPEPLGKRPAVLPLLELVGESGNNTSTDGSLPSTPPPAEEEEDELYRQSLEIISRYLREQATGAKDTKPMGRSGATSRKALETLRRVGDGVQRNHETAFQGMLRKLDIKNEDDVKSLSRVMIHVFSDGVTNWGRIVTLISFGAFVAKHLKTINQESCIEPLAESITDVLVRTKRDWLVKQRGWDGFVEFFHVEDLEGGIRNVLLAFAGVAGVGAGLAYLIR

IC50 (Mcl-1 protein) [M] | Structure (SMILES) | IC50 ([1]; Homo sapiens, NCI-H929, 48 h) [µM] | IC50 [1] [µM]
3.1e-08 | COc1ccccc1CC(Oc1ncnc2sc(-c3cc(F)c(F)c(OC)c3)c(-c3ccc(OCCN4CCN(C)CC4)c(Cl)c3C)c12)C(=O)O [Example 524, (2R)-2-{[(5Sa)-5-{3-chloro-2-methyl-4-[2-(4-methylpiperazin-1-yl)ethoxy]phenyl}-6-(3,4-difluoro-5-methoxyphenyl)thieno[2,3-d]pyrimidin-4-yl]oxy}-3-(2-methoxyphenyl)propanoic acid] | 0.417 | 
3.3e-09 | COc1ccccc1CC(Oc1ncnc2sc(-c3cc(F)c(F)c(F)c3F)c(-c3ccc(OCCN4CCN(C)CC4)c(Cl)c3C)c12)C(=O)O [Example 525, (2R)-2-{[(5Sa)-5-{3-chloro-2-methyl-4-[2-(4-methylpiperazin-1-yl)ethoxy]phenyl}-6-(2,3,4,5-tetrafluorophenyl)thieno[2,3-d]pyrimidin-4-yl]oxy}-3-(2-methoxyphenyl)propanoic acid] | 0.755 | 
4.1e-09 | COc1ccccc1CC(Oc1ncnc2sc(-c3cc(F)cc(Cl)c3)c(-c3ccc(OCCN4CCN(C)CC4)c(Cl)c3C)c12)C(=O)O [Example 526, (2R)-2-{[6-(3-chloro-5-fluorophenyl)-(5Sa)-5-{3-chloro-2-methyl-4-[2-(4-methylpiperazin-1-yl)ethoxy]phenyl}thieno[2,3-d]pyrimidin-4-yl]oxy}-3-(2-methoxyphenyl)propanoic acid] | 0.835 | 
7.1e-08 | COc1ccccc1CC(Oc1ncnc2sc(-c3cc(F)cc(F)c3)c(-c3ccc(OCCN4CCN(C)CC4)c(Cl)c3C)c12)C(=O)O [Example 527, (2R)-2-{[(5Sa)-5-{3-chloro-2-methyl-4-[2-(4-methylpiperazin-1-yl)ethoxy]phenyl}-6-(3,5-difluorophenyl)thieno[2,3-d]pyrimidin-4-yl]oxy}-3-(2-methoxyphenyl)propanoic acid] | 0.272 | 
1.6e-08 | COc1cc(F)cc(-c2sc3ncnc(OC(Cc4ccccc4OC)C(=O)O)c3c2-c2ccc(OCCN3CCN(C)CC3)c(Cl)c2C)c1 [Example 528, (2R)-2-{[(5Sa)-5-{3-chloro-2-methyl-4-[2-(4-methylpiperazin-1-yl)ethoxy]phenyl}-6-(3-fluoro-5-methoxyphenyl)thieno[2,3-d]pyrimidin-4-yl]oxy}-3-(2-methoxyphenyl)propanoic acid] | 0.334 | 
1.3e-08 | COc1ccccc1CC(Oc1ncnc2sc(-c3cc(C)co3)c(-c3ccc(OCCN4CCN(C)CC4)c(Cl)c3C)c12)C(=O)O [Example 529, (2R)-2-{[(5Sa)-5-{3-chloro-2-methyl-4-[2-(4-methylpiperazin-1-yl)ethoxy]phenyl}-6-(4-methylfuran-2-yl)thieno[2,3-d]pyrimidin-4-yl]oxy}-3-(2-methoxyphenyl)propanoic acid] | 0.308 | 
1.2e-07 | COc1ccccc1CC(Oc1ncnc2sc(-c3cc4sccc4s3)c(-c3ccc(OCCN4CCN(C)CC4)c(Cl)c3C)c12)C(=O)O [Example 530, (2R)-2-{[(5Sa)-5-{3-chloro-2-methyl-4-[2-(4-methylpiperazin-1-yl)ethoxy]phenyl}-6-(thieno[3,2-b]thiophen-2-yl)thieno[2,3-d]pyrimidin-4-yl]oxy}-3-(2-methoxyphenyl)propanoic acid] | 1.59 | 
3.5e-09 | COc1ccccc1CC(Oc1ncnc2sc(-c3ccc(F)c(C(F)(F)F)c3)c(-c3ccc(OCCN4CCN(C)CC4)c(Cl)c3C)c12)C(=O)O [Example 531, (2R)-2-[(5Sa)-(5-{3-chloro-2-methyl-4-[2-(4-methylpiperazin-1-yl)ethoxy]phenyl}-6-[4-fluoro-3-(trifluoromethyl)phenyl]thieno[2,3-d]pyrimidin-4-yl)oxy]-3-(2-methoxyphenyl)propanoic acid] | 1.22 | 
5.9e-08 | COc1ccccc1CC(Oc1ncnc2sc(-c3ccc(F)c(Cl)c3)c(-c3ccc(OCCN4CCN(C)CC4)c(Cl)c3C)c12)C(=O)O [Example 532, (2R)-2-{[6-(3-chloro-4-fluorophenyl)-(5Sa)-5-{3-chloro-2-methyl-4-[2-(4-methylpiperazin-1-yl)ethoxy]phenyl}thieno[2,3-d]pyrimidin-4-yl]oxy}-3-(2-methoxyphenyl)propanoic acid] | 0.323 | 
2.8e-08 | COc1ccccc1C[C@@H](Oc1ncnc2sc(-c3ccc(F)c(F)c3)c(-c3ccc(OCCN4CCN(C)CC4)c(Cl)c3C)c12)C(=O)O [Example 533, (2R)-2-{[(5Sa)-5-{3-chloro-2-methyl-4-[2-(4-methylpiperazin-1-yl)ethoxy]phenyl}-6-(3,4-difluorophenyl)thieno[2,3-d]pyrimidin-4-yl]oxy}-3-(2-methoxyphenyl)propanoic acid] |  | 0.201
1.6e-08 | COc1ccccc1CC(Oc1ncnc2sc(-c3ccc(F)c(O)c3)c(-c3ccc(OCCN4CCN(C)CC4)c(Cl)c3C)c12)C(=O)O [Example 534, (2R)-2-{[(5Sa)-5-{3-chloro-2-methyl-4-[2-(4-methylpiperazin-1-yl)ethoxy]phenyl}-6-(4-fluoro-3-hydroxyphenyl)thieno[2,3-d]pyrimidin-4-yl]oxy}-3-(2-methoxyphenyl)propanoic acid] | 0.413 | 
1.3e-07 | COc1ccccc1CC(Oc1ncnc2sc(-c3ccc(F)c(OCC(F)(F)F)c3)c(-c3ccc(OCCN4CCN(C)CC4)c(Cl)c3C)c12)C(=O)O [Example 535, (2R)-2-[(5Sa)-5-{3-chloro-2-methyl-4-[2-(4-methylpiperazin-1-yl)ethoxy]phenyl}-6-[4-fluoro-3-(2,2,2-trifluoroethoxy)phenyl]thieno[2,3-d]pyrimidin-4-yl)oxy]-3-(2-methoxyphenyl)propanoic acid] | 1.84 | 
7.7e-08 | COc1ccccc1C[C@@H](Oc1ncnc2sc(-c3ccc(F)c(Cl)c3F)c(-c3ccc(OCCN4CCN(C)CC4)c(Cl)c3C)c12)C(=O)O [Example 536, (2R)-2-{[6-(3-chloro-2,4-difluorophenyl)-(5Sa)-5-{3-chloro-2-methyl-4-[2-(4-methylpiperazin-1-yl)ethoxy]phenyl}thieno[2,3-d]pyrimidin-4-yl]oxy}-3-(2-methoxyphenyl)propanoic acid] |  | 0.797
4.7e-08 | COc1ccccc1CC(Oc1ncnc2sc(-c3ccc(C)cc3)c(-c3ccc(OCCN4CCN(C)CC4)c(Cl)c3C)c12)C(=O)O [Example 538, (2R)-2-{[(5Sa)-5-{3-chloro-2-methyl-4-[2-(4-methylpiperazin-1-yl)ethoxy]phenyl}-6-(4-methylphenyl)thieno[2,3-d]pyrimidin-4-yl]oxy}-3-(2-methoxyphenyl)propanoic acid] | 0.672 | 
7.2e-08 | COc1ccccc1CC(Oc1ncnc2sc(-c3ccc(Cl)cc3)c(-c3ccc(OCCN4CCN(C)CC4)c(Cl)c3C)c12)C(=O)O [Example 539, (2R)-2-{[(5Sa)-5-{3-chloro-2-methyl-4-[2-(4-methylpiperazin-1-yl)ethoxy]phenyl}-6-(4-chlorophenyl)thieno[2,3-d]pyrimidin-4-yl]oxy}-3-(2-methoxyphenyl)propanoic acid] | 0.731 | 
3.2e-09 | COc1ccccc1CC(Oc1ncnc2sc(-c3ccc(F)cc3F)c(-c3ccc(OCCN4CCN(C)CC4)c(Cl)c3C)c12)C(=O)O [Example 540, (2R)-2-{[(5Sa)-5-{3-chloro-2-methyl-4-[2-(4-methylpiperazin-1-yl)ethoxy]phenyl}-6-(2,4-difluorophenyl)thieno[2,3-d]pyrimidin-4-yl]oxy}-3-(2-methoxyphenyl)propanoic acid] | 0.311 | 
